Earlier results on 1 compound are cited in patent US20090060993A1, “SOLID PHARMACEUTICAL COMPOSITION FOR ENHANCED DELIVERY OF COENZYME Q-10 AND UBIQUINONES” (priority 2007, published 2009).

The conditions of this data set: humans.

Take `COC1=C(OC)C(=O)C(C/C=C(\C)CC/C=C(\C)CC/C=C(\C)CC/C=C(\C)CC/C=C(\C)CC/C=C(\C)CC/C=C(\C)CC/C=C(\C)CC/C=C(\C)CCC=C(C)C)=C(C)C1=O` [coenzyme Q-10, ubidecarenone]: the total absorption result is recorded as “less than 10%”.
